Results taken from publication PMC6318807 (ACS chemical neuroscience, 2018).

Biological target: EP2 receptor (Homo sapiens, UniProt P43116)
Test: TR-FRET cAMP
Format: cell-based

EP2 receptor, sequence (P43116 whole entry): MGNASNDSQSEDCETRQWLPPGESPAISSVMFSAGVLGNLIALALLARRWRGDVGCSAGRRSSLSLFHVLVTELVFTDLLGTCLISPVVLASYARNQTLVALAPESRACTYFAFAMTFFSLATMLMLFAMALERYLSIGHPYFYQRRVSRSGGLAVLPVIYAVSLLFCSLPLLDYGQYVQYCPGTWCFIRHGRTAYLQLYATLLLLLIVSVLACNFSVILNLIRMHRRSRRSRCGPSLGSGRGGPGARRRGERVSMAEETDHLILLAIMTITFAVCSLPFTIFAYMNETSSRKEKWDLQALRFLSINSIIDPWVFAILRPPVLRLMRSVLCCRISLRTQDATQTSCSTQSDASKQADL

SMILES	TR-FRET cAMP; fold leftward shift of PGE2 EC50 at 20 μM compound
CC(C)Sc1cc(N2CCOCC2)nc(-c2ccc(Cl)cc2)n1 [CID852308]	2.4 fold shift of PGE2 EC50 at 20 μM
O=C(Nc1cccc(Cl)c1N1CCCCC1)c1ccc2c(c1)OCCO2 [CID1254488]	2.5 fold shift of PGE2 EC50 at 20 μM
COc1ccc(-c2cc(C(F)(F)F)nc(N3CCOCC3)n2)cc1OC [CID2992168, 4-[4-(3,4-dimethoxyphenyl)-6 (trifluoromethyl)pyrimidin-2-yl]morpholine]	2.7 fold shift of PGE2 EC50 at 20 μM
CC(C)Sc1cc(N2CCOCC2)nc(-c2ccccc2)n1 [CID852313]	2.4 fold shift of PGE2 EC50 at 20 μM
CC1CCN(c2ccccc2NC(=O)c2ccc(F)cc2)CC1 [CID953673, 4-fluoro-N-(2-(4-methylpiperidin-1-yl)phenyl)benzamide]	2.5 fold shift of PGE2 EC50 at 20 μM
FC(F)(F)c1cc(-c2ccccc2)nc(N2CCOCC2)n1 [CID891729, 4-[4-phenyl-6-(trifluoromethyl)pyrimidin-2-yl]morpholine]	2.4 fold shift of PGE2 EC50 at 20 μM
Cc1ccccc1C(=O)Nc1ccccc1N1CCCCC1 [CID2340325, 2-methyl-N-(2-piperidin-1-ylphenyl)benzamide]	3.3 fold shift of PGE2 EC50 at 20 μM
O=C(Nc1ccccc1N1CCCCC1)c1ccc(F)cc1 [CID890517, 4-fluoro-N-(2-piperidin-1-ylphenyl)benzamide]	4.3 fold shift of PGE2 EC50 at 20 μM
